The test system of one test is TNFα. Description: cells. The test is classed as cell-based, human. As to conditions: Homo sapiens, Monocyte, LPS-stimulated human monocytes, TNFα content; read-out: EC50 TNF.
In a further test the target is IRAK4 enzyme (Homo sapiens (Human), UniProt Q9NWZ3). Description: biochemical. As to conditions: IRAK4 enzyme, TR-FRET (HTRF), 500 μM ATP. The test is classed as biochemical.
IRAK4 enzyme, sequence (Q9NWZ3 whole entry): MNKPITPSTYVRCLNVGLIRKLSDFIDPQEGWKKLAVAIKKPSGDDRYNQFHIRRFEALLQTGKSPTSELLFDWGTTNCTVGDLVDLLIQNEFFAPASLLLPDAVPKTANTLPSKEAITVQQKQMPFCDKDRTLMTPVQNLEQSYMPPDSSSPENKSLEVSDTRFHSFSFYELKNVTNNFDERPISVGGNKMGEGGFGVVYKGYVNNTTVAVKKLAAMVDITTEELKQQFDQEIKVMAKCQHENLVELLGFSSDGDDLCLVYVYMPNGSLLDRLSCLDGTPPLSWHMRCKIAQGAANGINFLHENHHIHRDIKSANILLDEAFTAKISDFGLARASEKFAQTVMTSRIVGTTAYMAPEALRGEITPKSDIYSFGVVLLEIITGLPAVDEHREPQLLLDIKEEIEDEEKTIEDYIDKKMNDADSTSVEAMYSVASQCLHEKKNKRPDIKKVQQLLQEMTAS

`CC(C)(O)[C@H](F)CNC(=O)c1cnc(-c2ccc3cc(C#N)cnn23)cc1N[C@H]1C[C@H](Cn2ccccc2=O)C1` [Example 729, 6-(3-cyanopyrrolo[1,2-b]pyridazin-7-yl)-N-((R)-2-fluoro-3-hydroxy-3-methylbutyl)-4-(((1r,3R)-3-((2-oxopyridin-1(2H)-yl)methyl)cyclobutyl)amino)nicotinamide]: the EC50 (usually the concentration at which the effect is half-maximal) in the test on TNFα is 58 nM. In addition, 1 nM corresponded to half-maximal inhibition on IRAK4 enzyme (IC50).

On to `CC(C)(O)[C@H](F)CNC(=O)c1cnc(-c2ccc3cc(C#N)cnn23)cc1N[C@H]1C[C@@H](CO)C1` [Example 730], for which, in the test with TNFα, the EC50 worked out at 40 nM. In addition, the IC50 (usually the concentration at which inhibition is half-maximal) on IRAK4 enzyme was < 1 nM.

`COC(=O)N[C@H]1C[C@@H](CNC(=O)c2cnc(-c3ccc4cc(C#N)cnn34)cc2NC23CCC(O)(CC2)CC3)C1` [Example 731, methyl ((1s,3s)-3-((6-(3-cyanopyrrolo[1,2-b]pyridazin-7-yl)-4-((4-hydroxybicyclo[2.2.2]octan-1-yl)amino)nicotin-amido)methyl)cyclobutyl) carbamate]: the EC50 in the test on TNFα was 59 nM. Moreover, the IC50 on IRAK4 enzyme was < 1 nM.

For `N#Cc1cnn2c(-c3cc(NC45CCC(O)(CC4)CC5)c(C(=O)NC[C@H]4C[C@@H](NC(=O)C5CC5)C4)cn3)ccc2c1` [Example 732, 6-(3-cyanopyrrolo[1,2-b]pyridazin-7-yl)-N-(((1s,3s)-3-(cyclopropane-carboxamido)cyclobutyl)methyl)-4-((4-hydroxy-bicyclo[2.2.2]octan-1-yl)amino)nicotinamide], in the test with TNFα, the EC50 stood at 89 nM. In addition, the IC50 against IRAK4 enzyme worked out at 1 nM.

With `COC(=O)N[C@H]1C[C@H](CNC(=O)c2cnc(-c3ccc4cc(C#N)cnn34)cc2NC23CCC(O)(CC2)CC3)C1` [Example 733, methyl ((1r,3r)-3-((6-(3-cyanopyrrolo[1,2-b]pyridazin-7-yl)-4-((4-hydroxybicyclo[2.2.2]octan-1-yl)amino)nicotin-amido)methyl)cyclobutyl) carbamate], in the test on TNFα, the EC50 came to 248 nM. This compound also had an IC50 against IRAK4 enzyme of 2 nM.

For `CN(C)C(=O)OC[C@H]1C[C@H](Nc2cc(-c3ccc4cc(C#N)cnn34)ncc2C(=O)NC[C@@H](F)C(C)(C)O)C1` [Example 734, ((1R,3r)-3-((2-(3-cyanopyrrolo[1,2-b]pyridazin-7-yl)-5-(((R)-2-fluoro-3-hydroxy-3-methylbutyl)carbamoyl)pyridin-4-yl)amino)cyclo-butyl)methyldimethyl-carbamate], the EC50 in the test on TNFα turned out to be 29 nM. Moreover, the half-inhibitory concentration (IC50) at IRAK4 enzyme was < 1 nM.

Take `CC(C)(O)[C@H](F)CNC(=O)c1cnc(-c2ccc3cc(C#N)cnn23)cc1N[C@H]1C[C@H](COC(=O)NC2CC2)C1` [Example 735, ((1R,3r)-3-((2-(3-cyano-pyrrolo[1,2-b]pyridazin-7-yl)-5-(((R)-2-fluoro-3-hydroxy-3-methylbutyl)carbamoyl)pyridin-4-yl)amino)cyclobutyl)methyl cyclopropylcarbamate]: in the test with TNFα, the EC50 was 100 nM. This compound gave an IC50 against IRAK4 enzyme of 1 nM.

As for `CC(C)(O)[C@H](F)CNC(=O)c1cnc(-c2ccc3cc(C#N)cnn23)cc1N[C@H]1C[C@H](COC(=O)NCC(F)F)C1` [Example 736, ((1R,3r)-3-((2-(3-cyano-pyrrolo[1,2-b]pyridazin-7-yl)-5-(((R)-2-fluoro-3-hydroxy-3-methylbutyl)carbamoyl)pyridin-4-yl)amino)cyclobutyl) methyl (2,2-difluoro-ethyl)carbamate], the EC50 in the test on TNFα is 48 nM. Besides, the IC50 against IRAK4 enzyme is < 1 nM.

In the case of `CC(C)(O)[C@H](F)CNC(=O)c1cnc(-c2ccc3cc(C#N)cnn23)cc1N[C@H]1C[C@H](COC(=O)N2CCC(F)(F)C2)C1` [Example 737, ((1R,3r)-3-((2-(3-cyano-pyrrolo[1,2-b]pyridazin-7-yl)-5-(((R)-2-fluoro-3-hydroxy-3-methylbutyl)carbamoyl)pyridin-4-yl)amino)cyclobutyl) methyl 3,3-difluoro-pyrrolidine-1-carboxylate], in the test with TNFα, the EC50 was determined as 26 nM. Also, on IRAK4 enzyme, the IC50 is < 1 nM.

Consider `CC(C)(O)[C@H](F)CNC(=O)c1cnc(-c2ccc3cc(C#N)cnn23)cc1N[C@H]1C[C@H](COC(=O)N2CC(F)(F)C2)C1` [Example 738, ((1R,3r)-3-((2-(3-cyano-pyrrolo[1,2-b]pyridazin-7-yl)-5-(((R)-2-fluoro-3-hydroxy-3-methylbutyl)carbamoyl)pyridin-4-yl)amino)cyclobutyl) methyl 3,3-difluoro-azetidine-1-carboxylate], for which, in the test with TNFα, the EC50 amounted to 29 nM. Moreover, the IC50 against IRAK4 enzyme was < 1 nM.

`N#Cc1cnn2c(-c3cc(NC45CCC(O)(CC4)CC5)c(C(=O)NCC4(F)CCC4)cn3)ccc2c1` [Example 739, 6-(3-cyanopyrrolo[1,2-b]pyridazin-7-yl)-N-((1-fluorocyclobutyl)methyl)-4-((4-hydroxybicyclo[2.2.2]octan-1-yl)amino) nicotinamide]: in the test with TNFα, the EC50 turned out to be 277 nM. For the same compound, on IRAK4 enzyme, 4 nM corresponded to half-maximal inhibition (IC50).

Regarding `CC(C)(F)CNC(=O)c1cnc(-c2ccc3cc(C#N)cnn23)cc1NC12CCC(O)(CC1)CC2` [Example 740, 6-(3-cyanopyrrolo[1,2-b]pyridazin-7-yl)-N-(2-fluoro-2-methylpropyl)-4-((4-hydroxybicyclo[2.2.2]octan-1-yl)amino) nicotinamide], the EC50 with TNFα was 265 nM. For the same compound, the IC50 against IRAK4 enzyme turned out to be 4 nM.

As to `COC(=O)N1CC[C@H](CNC(=O)c2cnc(-c3ccc4cc(C#N)cnn34)cc2NC23CCC(O)(CC2)CC3)C1` [Example 741, (R)-methyl 3-((6-(3-cyano-pyrrolo[1,2-b]pyridazin-7-yl)-4-((4-hydroxybicyclo[2.2.2]octan-1-yl)amino)nicotin-amido)methyl)pyrrolidine-1-carboxylate], the EC50 in the test on TNFα was 124 nM. In addition, the IC50 at IRAK4 enzyme is < 1 nM.

With `COC(=O)N1CC[C@@H](CNC(=O)c2cnc(-c3ccc4cc(C#N)cnn34)cc2NC23CCC(O)(CC2)CC3)C1` [Example 742, (S)-methyl 3-((6-(3-cyano-pyrrolo[1,2-b]pyridazin-7-yl)-4-((4-hydroxy-bicyclo[2.2.2]octan-1-yl)amino)nicotinamido)methyl)pyrrolidine-1-carboxylate], the EC50 with TNFα turned out to be 126 nM. On IRAK4 enzyme, the IC50 is 1 nM.

`CNC(=O)OC[C@H](F)CNC(=O)c1cnc(-c2ccc3cc(C#N)cnn23)cc1NC12CCC(O)(CC1)CC2` [Example 743, (R)-3-(6-(3-cyano-pyrrolo[1,2-b]pyridazin-7-yl)-4-((4-hydroxy-bicyclo[2.2.2]octan-1-yl)amino)nicotin-amido)-2-fluoropropyl methylcarbamate]: the EC50 with TNFα is 54 nM. Also, the IC50 against IRAK4 enzyme is < 1 nM.

Turning to `COC(=O)N1CC(CNC(=O)c2cnc(-c3ccc4cc(C#N)cnn34)cc2NC23CCC(O)(CC2)CC3)C1` [Example 744, methyl 3-((6-(3-cyano-pyrrolo[1,2-b]pyridazin-7-yl)-4-((4-hydroxy-bicyclo[2.2.2]octan-1-yl)amino)nicotinamido)methyl)azetidine-1-carboxylate], the EC50 with TNFα is 157 nM. Moreover, the IC50 on IRAK4 enzyme stood at 2 nM.

For the compound `N#Cc1cnn2c(-c3cc(NC45CCC(O)(CC4)CC5)c(C(=O)NCCO)cn3)ccc2c1` [Example 745, 6-(3-cyanopyrrolo[1,2-b]pyridazin-7-yl)-4-((4-hydroxybicyclo[2.2.2]octan-1-yl)amino)-N-(2-hydroxyethyl)nicotinamide], the EC50 in the test on TNFα was 87 nM. Besides, at IRAK4 enzyme, the IC50 was < 1 nM.

On to `COC(=O)NCCNC(=O)c1cnc(-c2ccc3cc(C#N)cnn23)cc1NC12CCC(O)(CC1)CC2` [Example 746, methyl (2-(6-(3-cyano-pyrrolo[1,2-b]pyridazin-7-yl)-4-((4-hydroxy-bicyclo[2.2.2]octan-1-yl)amino)nicotinamido)ethyl)carbamate], for which, in the test with TNFα, the EC50 is 105 nM. The same compound displayed an IC50 on IRAK4 enzyme of 1 nM.

With `CNC(=O)O[C@@H]1CCC[C@H](Nc2cc(-c3ccc4cc(C#N)cnn34)ncc2C(=O)NC[C@@H](F)C(C)(C)O)C1` [Example 748, (1R,3S)-3-((2-(3-cyano-pyrrolo[1,2-b]pyridazin-7-yl)-5-(((R)-2-fluoro-3-hydroxy-3-methylbutyl)carbamoyl)pyridin-4-yl)amino)cyclohexyl methylcarbamate], in the test on TNFα, the EC50 is 38 nM. In addition, the IC50 against IRAK4 enzyme was < 1 nM.

Turning to `CC(C)(O)[C@H](F)CNC(=O)c1cnc(-c2ccc3cc(C#N)cnn23)cc1NC1CC2(C1)CC(F)(F)C2` [Example 749, (R)-6-(3-cyanopyrrolo[1,2-b]pyridazin-7-yl)-4-((6,6-difluorospiro[3.3]heptan-2-yl)amino)-N-(2-fluoro-3-hydroxy-3-methylbutyl) nicotinamide], the EC50 in the test on TNFα stood at 52 nM. Moreover, the IC50 against IRAK4 enzyme is < 1 nM.

Take `COC(=O)N[C@H]1CC[C@H](Nc2cc(-c3ccc4cc(C#N)cnn34)ncc2C(=O)NC[C@@H](F)C(C)(C)O)C1` [Example 750, methyl ((1S,3S)-3-((2-(3-cyanopyrrolo[1,2-b]pyridazin-7-yl)-5-(((R)-2-fluoro-3-hydroxy-3-methylbutyl)carbamoyl)pyridin-4-yl)amino)cyclopentyl) carbamate]: in the test on TNFα, the concentration giving a half-maximal response (EC50) stood at 198 nM. For the same compound, the IC50 against IRAK4 enzyme was determined as 1 nM.

On to `COC(=O)N1CC[C@H](Nc2cc(-c3ccc4cc(C#N)cnn34)ncc2C(=O)NC[C@@H](F)C(C)(C)O)C1` [Example 751, (S)-methyl 3-((2-(3-cyano-pyrrolo[1,2-b]pyridazin-7-yl)-5-(((R)-2-fluoro-3-hydroxy-3-methylbutyl)carbamoyl)pyridin-4-yl)amino)pyrrolidine-1-carboxylate], for which the EC50 in the test with TNFα turned out to be 333 nM. For the same compound, the IC50 at IRAK4 enzyme stood at 4 nM.

As for `COC(=O)N1CC[C@@H](Nc2cc(-c3ccc4cc(C#N)cnn34)ncc2C(=O)NC[C@@H](F)C(C)(C)O)C1` [Example 752, (R)-methyl 3-((2-(3-cyano-pyrrolo[1,2-b]pyridazin-7-yl)-5-(((R)-2-fluoro-3-hydroxy-3-methylbutyl)carbamoyl)pyridin-4-yl)amino)pyrrolidine-1-carboxylate], the EC50 in the test on TNFα stood at 80 nM. For the same compound, the IC50 against IRAK4 enzyme is < 1 nM.

Source of the values: US10336762B2 (priority 2017, dated 2019).
